According to patent US20220340687A1 (NOVARTIS AG, priority 2019, published 2022):

Assays:
Format in all cases: cell-based, human
[1] = test system: IgE bound to FcεR1 on pDCs; experiment: Removal of membrane-bound IgE from purified pDCs; details: pDCs from atopic donors, IL-3, 5, 10 and mg/mL of Oma, 24 hours
Method: (§1) A) Left: Frequency of FcεR1α-bound IgE+ cells gated in pDCs. Right: Frequency of cells with unoccupied FcεR1, gated in pDCs (n=4). B) Viability of pDCs after 24 hours incubation with Oma (n=2). Values are given as mean±SEM. **p<0.01, *p<0.05 in paired t-test comparing multiple conditions.

[2] = test system: pDCs cocultured with naïve CD4+ T cells; experiment: Generation of Treg cells by pDCs: omalizumab in comparison to corticosteroids; details: 5 or 10 mg/mL of omalizumab for 24 hours before crosslinker and TLR9-L; coculture 5 days
Method: After 24 hours, the pDCs were washed and cocultured with naïve CD4+ T cells for 5 days.

pDCs [3] = experiment: Viability of pDCs after incubation with Oma; details: 24 hours incubation with Oma
Method: as §1

pDCs [4] = experiment: Cytokine signature of TLR9-L-activated pDCs under IgE-FcεR1-crosslinker (ELISA); details: omalizumab 10 mg/mL 24 hours prior to crosslinker and TLR9-L, ELISA 24 hours after activation, compared to crosslinker condition
Method: Then, the cytokine profile was analysed by ELISA 24 hours after activation.

[5] = test system: pDCs cocultured with naïve CD4+ T cells; experiment: Blocking experiments (IDO, PD-L1, IFN-α) on Treg cells generation by pDCs in coculture; details: added to the coculture; p=0.07
Description: Additionally, it is claimed that IFN-α itself induces the generation of Treg cells.

Sequence of IgE bound to FcεR1 on pDCs (P01854 1-428 isoform P01854-1): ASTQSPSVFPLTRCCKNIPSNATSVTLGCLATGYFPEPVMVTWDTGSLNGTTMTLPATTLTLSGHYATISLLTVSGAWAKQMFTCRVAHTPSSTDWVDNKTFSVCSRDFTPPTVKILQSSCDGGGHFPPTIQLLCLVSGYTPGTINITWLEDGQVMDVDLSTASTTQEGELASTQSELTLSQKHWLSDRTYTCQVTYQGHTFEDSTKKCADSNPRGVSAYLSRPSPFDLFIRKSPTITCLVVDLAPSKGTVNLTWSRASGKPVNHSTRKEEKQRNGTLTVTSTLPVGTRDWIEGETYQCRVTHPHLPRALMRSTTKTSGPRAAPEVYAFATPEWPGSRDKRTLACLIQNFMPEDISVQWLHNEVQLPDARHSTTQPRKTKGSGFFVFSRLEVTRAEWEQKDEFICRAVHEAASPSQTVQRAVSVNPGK

Row | Compound | IgE bound to FcεR1 on pDCs (IgE mean fluorescence intensity, MFI) [1] | frequency of pDCs with FcεR1-bound IgE (FcεR1+IgE+pDCs) [1] | levels of pDCs with unoccupied FcεR1 (FcεR1+IgE-pDCs) [1] | crosslinker-induced decrease of the frequency of induced Treg cells [2] | pDCs viability (pDCs [3]) | TNF-α levels (pDCs [4]; p=0.04) | pDCs capacity to produce IFN-α (pDCs [4]; p=0.05) | pDCs capacity to induce Treg cells under IgE-FcεR1-crosslinker condition [5]
1 | Omalizumab: recombinant DNA-derived humanized monoclonal antibody that selectively binds to free, circulating human immunoglobulin E (IgE) | decrease in IgE mean fluorescence intensity (MFI) in a dose-dependent manner | significant reduction | increased levels | reverted by Omalizumab in a dose dependent manner | did not affect pDCs viability | retained low TNF-α levels | restored pDCs capacity to produce IFN-α | 
2 | Nc1ccccc1C(=O)CC(N)C(=O)O (centres unmarked) [kyn, kynurenine] |  |  |  |  |  |  |  | increased
